SMILES strings stand for the structures.

Sequence of DLK (Q12852 1-520): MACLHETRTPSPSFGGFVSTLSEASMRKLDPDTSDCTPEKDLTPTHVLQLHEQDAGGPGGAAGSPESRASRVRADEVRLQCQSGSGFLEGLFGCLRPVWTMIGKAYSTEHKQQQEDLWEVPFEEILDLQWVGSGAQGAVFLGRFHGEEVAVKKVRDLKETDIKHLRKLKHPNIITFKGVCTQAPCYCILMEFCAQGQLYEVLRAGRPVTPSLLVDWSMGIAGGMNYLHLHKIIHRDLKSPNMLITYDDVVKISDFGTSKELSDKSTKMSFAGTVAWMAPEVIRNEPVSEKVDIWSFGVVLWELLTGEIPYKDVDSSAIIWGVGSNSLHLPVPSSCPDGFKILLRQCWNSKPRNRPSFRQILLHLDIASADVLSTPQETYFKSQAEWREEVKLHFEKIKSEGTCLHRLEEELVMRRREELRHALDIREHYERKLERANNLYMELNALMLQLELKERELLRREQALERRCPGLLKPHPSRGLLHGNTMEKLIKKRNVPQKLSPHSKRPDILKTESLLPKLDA

In this test the target is DLK (Homo sapiens (Human), UniProt Q12852). The test is described as follows: DLK TR-FRET Inhibition Assay. Format: biochemical. As to conditions: N-terminally GST-tagged DLK (catalytic domain amino acid 1-520), MKK4 K131M substrate, 30 μM ATP; read-out: DLK HTRF Ki. The method, then:
DLK kinase reactions (20 μL) containing 5 nM N-terminally GST-tagged DLK (catalytic domain amino acid 1-520) (Carna Bioscience), 40 nM N-terminally HIS tagged MKK4 K131M substrate, and 30 μM ATP in kinase reaction buffer (50 mM HEPES, pH 7.5, 0.01% Triton X-100, 0.01% Bovine γ-Globulins, 2 mM DTT, 10 mM MgCl2 and 1 mM EGTA), and testing compound 1:3 serial diluted starting at 20 uM were incubated at ambient temperature for 60 minutes in 384 well OptiPlate (Perkin Elmer). To quench kinase reactions and detect phosphorylated MKK4, 15 μL of TR-FRET antibody mixture containing 2 nM anti-phosphorylated MKK4 labeled with Europium cryptate (Cisbio) and 23 nM anti-HIS labeled with D2 (Cisbio) in detection buffer (25 mM Tris pH 7.5, 100 mM NaCl, 100 mM EDTA, 0.01% Tween-20, and 200 mM KF) was added to the reaction mixture. The detection mixture was incubated for 3 hours at ambient temperature and the TR-FRET was detected with an EnVision multilabel plate reader (Perkin-Elmer) using the LANCE/DELFIA Dual Enh label from Perkin-Elmer (excitation filter: UV2 (TRF) 320 and emission filters: APC 665 and Europium 615).
For orientation: In TR-FRET formats the signal depends on donor and acceptor labels being close together.
The Ki is the equilibrium dissociation constant of an inhibitor or competing ligand from its target. As for `Nc1ncc(-c2nc(N3CC4CC3C4)c3nc4n(c3n2)CCO[C@H]4C(F)(F)F)cn1` (single isomer, unassigned) [Example 98], the Ki amounted to 93.8 nM.
In the case of `CC1(C)OCCn2c1nc1c(N3CC(C#N)C3)nc(-c3cnc4[nH]cc(F)c4c3)nc12` [Example 152] it was 183 nM.
Next, `CC1(C)OCCn2c1nc1c(N3CC4CCC3C4)nc(-c3cnc4[nH]cnc4c3)nc12` (stereo not drawn) [Example 147]: 39.5 nM; `CC1(C)OCCn2c1nc1c(N3CCC4(COC4)C3)nc(-c3cnc4[nH]cc(C#N)c4c3)nc12` [Example 42, 5-[8,8-Dimethyl-1-(2-oxa-6-aza-spiro[3.4]oct-6-yl)-5,6-dihydro-8H-7-oxa-2,4,4b,9-tetraaza-fluoren-3-yl]-1H-pyrrolo[2,3-b]pyridin-3-carbonitrile]: 4.97 nM.
In the case of `CCC(C)Oc1cc(-c2nc(N3CCC(F)(F)C3)c3nc4n(c3n2)CCOC4(C)C)cnc1N` (stereo not drawn) [Example 80] it was 443 nM; in that of `CC1(C)OCCn2c1nc1c(C3CCC3)nc(-c3cnc(N)nc3)nc12` [Example 104, 5-(4-cyclobutyl-6,6-dimethyl-8,9-dihydro-6H-[1,4]oxazino[4,3-e]purin-2-yl)pyrimidin-2-amine], 297 nM.
As to `CC1(C)OCCn2c1nc1c(N3CC(F)(F)C3)nc(-c3cnc(N)nc3)nc12` [Example 68], the Ki came to 480 nM.
For the compound `CC1(C)OCCn2c1nc1c(N3CC(C#N)C3)nc(-c3cnc4[nH]cnc4c3)nc12` [Example 112, 1-(2-(3H-imidazo[4,5-b]pyridin-6-yl)-6,6-dimethyl-8,9-dihydro-6H-[1,4]oxazino[4,3-e]purin-4-yl)azetidine-3-carbonitrile], the Ki came to 458 nM.
Take `C[C@@H]1Cn2c(nc3c(N4CC5CC4C5)nc(-c4cnc(N)nc4)nc32)C(C)(C)O1` (single isomer, unassigned) [Example 138]: the inhibition constant (Ki) is 82.5 nM.
Next, `Cc1c[nH]c2ncc(-c3nc(N4CC(F)(F)C4)c4nc5n(c4n3)CCOC5(C)C)cc12` [Example 66]: 11.9 nM.
Next, `CC1(C)OCCn2c1nc1c(OC3CC4CC4C3)nc(-c3cnc(N)nc3)nc12` (stereo not drawn) [Example 89]: 551 nM; `C[C@H]1OCCn2c1nc1c(N3CC4CC3C4)nc(-c3cnc(N)nc3)nc12` (single isomer, unassigned) [Example 108]: 239 nM; `CC1(C)OCCn2c1nc1c(N3CCC4CC43)nc(-c3cnc(N)nc3)nc12` (stereo not drawn) [Example 7, 5-[1-(2-Aza-bicyclo[3.1.0]hex-2-yl)-8,8-dimethyl-5,6-dihydro-8H-7-oxa-2,4,4b,9-tetraaza-fluoren-3-yl]-pyrimidin-2-ylamine]: 199 nM.
Next, `CC1(C)OCCn2c1nc1c(N3CC(O)C3)nc(-c3cnc4[nH]cnc4c3)nc12` [Example 109, 1-(2-(3H-imidazo[4,5-b]pyridin-6-yl)-6,6-dimethyl-8,9-dihydro-6H-[1,4]oxazino[4,3-e]purin-4-yl)azetidin-3-ol]: 379 nM; `CC1(C)OCCn2c1nc1c(N3CC4CC3C4)nc(-c3cnc(N)nc3)cc12` [Example 116, 5-(9-(2-azabicyclo[2.1.1]hexan-2-yl)-1,1-dimethyl-3,4-dihydro-1H-pyrido[3′,4′:4,5]imidazo[2,1-c][1,4]oxazin-7-yl)pyrimidin-2-amine]: 21.3 nM; `CC1(C)OCCn2c1nc1c(N3CC4CC3C4)nc(-c3cnc(N)c(C#N)c3)cc12` [Example 144]: 2.23 nM.
Regarding `CC(C)Oc1cc(-c2nc(N3CC(F)(F)C3)c3nc4n(c3n2)CCOC4(C)C)cnc1N` [Example 71], the Ki is 104 nM.
Next, `CCOc1cc(-c2nc(N3CC(F)(F)C3)c3nc4n(c3n2)CCOC4(C)C)cnc1N` [Example 69]: 289 nM; `CC1(C)OCCn2c1nc1c(N3CC(O)C3)nc(-c3cnc4[nH]cc(C(F)(F)F)c4c3)nc12` [Example 39, 1-[8,8-Dimethyl-3-(3-trifluoromethyl-1H-pyrrolo[2,3-b]pyridin-5-yl)-5,6-dihydro-8H-7-oxa-2,4,4b,9-tetraaza-fluoren-1-yl]-azetidin-3-ol]: 6.79 nM.
In the case of `CC1(C)OCCn2c1nc1c(N3CC4CC3C4)nc(-c3cnc(N)c(F)c3)nc12` [Example 36, 5-[1-(2-Aza-bicyclo[2.1.1]hex-2-yl)-8,8-dimethyl-5,6-dihydro-8H-7-oxa-2,4,4b,9-tetraaza-fluoren-3-yl]-3-fluoro-pyridin-2-ylamine] it was 444 nM; in that of `CC1(C)OCCn2c1nc1c(N3CCC4(COC4)C3)nc(-c3cnc(N)c(C(F)(F)F)c3)nc12` [Example 49, 5-[8,8-Dimethyl-1-(2-oxa-6-aza-spiro[3.4]oct-6-yl)-5,6-dihydro-8H-7-oxa-2,4,4b,9-tetraaza-fluoren-3-yl]-3-trifluoromethyl-pyridin-2-ylamine], 270 nM.
Next, `C[C@H]1Cn2c(nc3c(N4CC5CC4C5)nc(-c4cnc(N)nc4)nc32)C(C)(C)O1` (single isomer, unassigned) [Example 139]: 149 nM; `CC1(C)OCCn2c1nc1c(N3CC4CC3C4)nc(-c3cnc(N)c(C4CC4)c3)nc12` [Example 44, 5-[1-(2-Aza-bicyclo[2.1.1]hex-2-yl)-8,8-dimethyl-5,6-dihydro-8H-7-oxa-2,4,4b,9-tetraaza-fluoren-3-yl]-3-cyclopropyl-pyridin-2-ylamine]: 621 nM; `C[C@@]1(C2CC2)OCCn2c1nc1c(C3CC3)nc(-c3cnc(N)nc3)nc12` (single isomer, unassigned) [Example 106]: 385 nM.
On to `CC1(C)OCCn2c1nc1c(N3CC(F)(F)C3)nc(-c3cnc(N)c(OCC4CC4)c3)nc12` [Example 70], for which the Ki was 417 nM.
In the case of `CC1(C)OCCn2c1nc1c(N3CC4CC3C[C@@H]4F)nc(-c3cnc(N)nc3)nc12` (single isomer, unassigned) [Example 143] it was 223 nM.
Next, `Cc1cc(-c2nc(N3CC4CC3C4)c3nc4n(c3n2)CCOC4(C)C)cnc1N` [Example 48, 5-(4-(2-azabicyclo[2.1.1]hexan-2-yl)-6,6-dimethyl-8,9-dihydro-6H-[1,4]oxazino[4,3-e]purin-2-yl)-3-methylpyridin-2-amine]: 992 nM.
For `CC(C)c1c[nH]c2ncc(-c3nc(N4CC(F)(F)C4)c4nc5n(c4n3)CCOC5(C)C)cc12` [Example 67], the Ki was 32.7 nM.
In the case of `CC1(C)OCCn2c1nc1c(N3CCCC3)nc(-c3cnc(N)nc3)nc12` [Example 18, 5-(8,8-Dimethyl-1-pyrrolidin-1-yl-5,6-dihydro-8H-7-oxa-2,4,4b,9-tetraaza-fluoren-3-yl)-pyrimidin-2-ylamine], the Ki came out at 402 nM.
On to `C[C@@H]1COC(C)(C)c2nc3c(N4CC5CC4C5)nc(-c4cnc(N)nc4)nc3n21` (single isomer, unassigned) [Example 96], for which the Ki came out at 42 nM.
In the case of `Cc1c[nH]c2ncc(-c3nc(N4CCC5(COC5)C4)c4nc5n(c4n3)CCOC5(C)C)cc12` [Example 30, 8,8-Dimethyl-3-(3-methyl-1H-pyrrolo[2,3-b]pyridin-5-yl)-1-(2-oxa-6-aza-spiro[3.4]oct-6-yl)-5,6-dihydro-8H-7-oxa-2,4,4b,9-tetraaza-fluorene] it was 10.2 nM; in that of `CC1CCC(C)N1c1nc(-c2cnc(N)nc2)nc2c1nc1n2CCOC1(C)C` (stereo not drawn) [Example 54, 5-[1-(2,5-Dimethyl-pyrrolidin-1-yl)-8,8-dimethyl-5,6-dihydro-8H-7-oxa-2,4,4b,9-tetraaza-fluoren-3-yl]-pyrimidin-2-ylamine], 284 nM; in that of `CC1(C)OCCn2c1nc1c(N3C[C@@H]4CC(F)(F)C[C@@H]4C3)nc(-c3cnc(N)nc3)nc12` [Example 6], 727 nM.
On to `CC1(C)OCCn2c1nc1c(N3CC(C#N)C3)nc(-c3cnc4[nH]cc(Cl)c4c3)nc12` [Example 110, 1-(2-(3-chloro-1H-pyrrolo[2,3-b]pyridin-5-yl)-6,6-dimethyl-8,9-dihydro-6H-[1,4]oxazino[4,3-e]purin-4-yl)azetidine-3-carbonitrile], for which the Ki is 1.25 nM.
In the case of `CC1(C)OCCn2c1nc1c(C3CC3)nc(-c3cnc(N)c(OC(F)F)c3)nc12` [Example 119, 5-(4-cyclopropyl-6,6-dimethyl-8,9-dihydro-6H-[1,4]oxazino[4,3-e]purin-2-yl)-3-(difluoromethoxy)pyridin-2-amine] it was 34.3 nM; in that of `COc1cc(-c2nc(N3CC(F)(F)C3)c3nc4n(c3n2)CCOC4(C)C)cnc1N` [Example 65, 5-(4-(3,3-difluoroazetidin-1-yl)-6,6-dimethyl-8,9-dihydro-6H-[1,4]oxazino[4,3-e]purin-2-yl)-3-methoxypyridin-2-amine], 860 nM; in that of `CC[C@]1(C)OCCn2c1nc1c(N3CC4CC3C4)nc(-c3cnc(N)nc3)nc12` (single isomer, unassigned) [Example 94], 281 nM.
In the case of `CN(c1nc(-c2cnc(N)nc2)nc2c1nc1n2CCOC1(C)C)C1CC1` [Example 60, 2-(2-aminopyrimidin-5-yl)-N-cyclopropyl-N,6,6-trimethyl-8,9-dihydro-6H-[1,4]oxazino[4,3-e]purin-4-amine] it was 207 nM; in that of `Nc1ncc(-c2nc(C3CC3)c3nc4n(c3n2)CCOC42CCC2)cn1` [Example 115, 5-(4-cyclopropyl-8,9-dihydrospiro[[1,4]oxazino[4,3-e]purine-6,1′-cyclobutan]-2-yl)pyrimidin-2-amine], 226 nM.

(Values after patent US10131675B2 (Genentech, Inc., priority 2015, dated 2018).)
